Laboratory results taken from patent US4511559A, “Biologically active polysaccharide concentrates and process for production of preparates containing such substances” (Kozponti Valto-es Hitelbank Rt. InnovacioAlap, priority 1982, dated 1985).
Read-outs that look alike come from different tables or passages of the source.

What was measured:
[1] = system: adjuvans arthritis in rat; assay: adjuvans arthritis in rat (chronic inflammation model); type: in vivo; conditions: 50 mg/kg, intraperitoneal, 3 weeks
Text: The polysaccharides produced according to the invention show significant effectivity on chronic inflammation models too, for example on adjuvans arthritis in rat, at intraperitoneal treatment for 3 weeks: […]

[2] = system: rat paw carrageenan oedema; assay: rat paw carrageenan oedema test (anti-inflammatory activity); type: in vivo; conditions: for Anti-inflammatory activity %: table 4; for ED50: Rattus norvegicus, po, reference standard
Text: (§1) The anti-inflammatory activity of the polysaccharide concentrates produced according to the invention was investigated on the rat paw carrageenan oedema test according to Winter et al. [Proc. Soc. Exp. Biol. Med. 111. 544. (1962)]. The concentrate has a significant specific activity and in connection with its advantageous anti-inflammatory activity it posseses a remarkably low toxicity.

rat = assay: in vivo; conditions: table 4
Description: (§2) The anti-inflammatory activity of the polysaccharide concentrate according to the invention was investigated intraperitoneally on rat according to the paw carrageenan oedema test. Simultaneously the LD50 values of the polysaccharide concentrates (i.p.) were determined.
(§3) The anti-inflammatory activity of the prepared polysaccharide concentrates was determined in comparison to the indomethancin as well using the rat paw carrageenan oedema test. The polysaccharide sample was intraperitoneally injected one hour before the inflammation inducing carrageenan. As reference standard per os applied indomethacin was used, which was suspended in 1% methylcellulose solution, and given through a gastric tube into the stomach one hour prior to the administration of Carrageenan to CFY rats and CFLP mice. The dosage was the same during the toxicity studies as well.
(§4) To develop the PG phase 5 hours are required from the injection of the inflammation inducing carrageenan.

in vivo = conditions: rat, in vivo, po, LD50, p.o.
Description: as §2, §3, §4

[3] = rat paw carrageenan oedema test (anti-inflammatory activity); type: in vivo; conditions: rat, in vivo, po, read-out: Therapeutic index LD50/ED50
Text: as §1

Structure (SMILES)	Anti-inflammatory activity % [1]	Anti-inflammatory activity % ([2]; 90 mg/kg p.o.)	inhibition ([2]; 100 mg/kg, standard)	Inhibiton ([2]; intraperitoneally, rat, 100 mg/kg)	Anti-inflammatory activity % ([2]; 400 mg/kg p.o.)	Dose/LD50 ratio (rat; dose 400 mg/kg p.o.)	LD50 (in vivo; table 4)	Anti-inflammatory activity % ([2]; 10 mg/kg p.o.)	ED50 ([2]; 2 hours)	ED50 ([2]; 5 hours)	selectivity ratio ([3]; 2 hours)	selectivity ratio ([3]; 5 hours)	Dose/LD50 ratio (rat; dose 10 mg/kg p.o.)	LD50 (in vivo; table 2)
CCCCC1C(=O)N(c2ccccc2)N(c2ccccc2)C1=O [Phenylbutazone, phenylbutazone]	64%	40%	45%	45.0%	–	–	–	–	–	–	–	–	–	–
CC(=O)Oc1ccccc1C(=O)O [Aspyrine]	–	–	–	–	36%	0.330	1200 mg/kg	–	–	–	–	–	–	–
COc1ccc2c(c1)c(CC(=O)O)c(C)n2C(=O)c1ccc(Cl)cc1 [Indomethacin, indomethacin]	–	–	–	–	–	–	17 mg/kg	51%	3.14 mg/kg	2.2 mg/kg	10.2	14.5	0.580	32 mg/kg
